Test results from US6992079B2, “Substituted 11-phenyl-dibenzazepine compounds useful for the treatment or prevention of diseases characterized by abnormal cell proliferation” (President Fellows of Harvard College, priority 1997, dated 2006).
Like-named read-outs stand apart in the source and are kept apart here. Marks after values point to notes of the source that are not given here.

Experiments:
[1] = Preliminary toxicology, subcutaneous injection for 14 days; format: in vivo, CD-1 female mice; details: CD-1 female mice; 80 mg/kg/day s.c. 14 days
Protocol: The toxicological effects of CLT, and compounds 28, 30 and 31 were tested in CD-1 female mice. A dose of 80 mg/kg/day was given to each mouse via subcutaneous injection for a period of 14 days. Preliminary toxicological data was determined by measuring body weight, gross pathology of organs blood chemistry and histology. The vehicle used was DMF 12%+2% Tween 20 88%.

[2] = tested on: squamous cell carcinoma (KLN-205) cells; assay: Tumor growth in murine squamous cell carcinoma model; format: in vivo, mouse
[3] = tested on: H209 small lung cell carcinoma; assay: Mouse xenograft tumor growth; format: in vivo, SCID mice
CCRF-CEM = assay: In-Vitro Testing SRB panel: Leukemia; format: cell-based; details: 48 h
K-562 = assay: In-Vitro Testing SRB panel: Leukemia; format: cell-based
A549/ATCC = format: cell-based
ROP-92 = format: cell-based; details: 48 h
NCI-H460 = format: cell-based; details: NCI-H460, 48 h
NCI-H522 = format: cell-based; details: NCI-H522, 48 h
KM12 = assay: In-Vitro Testing SRB panel: Colon Cancer; format: cell-based; details: KM12, 48 h
SF-295 = assay: In-Vitro Testing SRB panel: CNS Cancer; format: cell-based; details: SF-295, 48 h
SNB-75 = assay: In-Vitro Testing SRB panel: CNS Cancer; format: cell-based; details: SNB-75, 48 h
CARI-1 = assay: In-Vitro Testing SRB panel: Renal Cancer; format: cell-based; details: 48 h
TK-10 = assay: In-Vitro Testing SRB panel: Renal Cancer; format: cell-based; details: TK-10, 48 h
DU-145 = assay: In-Vitro Testing SRB panel: Prostate Cancer; format: cell-based; details: DU-145, 48 h
BT-549 = assay: In-Vitro Testing SRB panel: Breast Cancer; format: cell-based; details: BT-549, 48 h
[4] = Homo sapiens, read-out: LC50 (the source's name)

O=C(c1ccc([N+](=O)[O-])cc1)N1Cc2ccccc2C(c2ccccc2Cl)c2ccccc21 (stereo not shown) [Compound 28, N-(4′-Nitrobenzoyl)-11-(2′-chlorophenyl)-5,6-dihydro-11H-dibenz[b,e]azepine]
Body Weight Change [1]: 107%
Liver Weight [1]: 1.51 ± 0.08^c g
RBC [1]: 8.1 ± 0.6 10^6/mm^3
WBC [1]: 7.5 ± 0.8 10^3/mm^3
WBC, RBC, BUN and creatine levels [1]: no differences were found
cyclin D1 and PCNA expression in vivo ([2]; KLN induced tumors): abrogated cyclin D1 and PCNA expression
tumor growth ([2]; KLN-205, subcutaneous injection or oral administration of 80 mg/kg/day for 30 days): significantly inhibited tumor growth
tumor growth [3]: significantly inhibited tumor growth
TGI (CCRF-CEM): 2.99E−06 Molar
GI50 (CCRF-CEM; Homo sapiens): 0.0909 µM
CC50 (CCRF-CEM; [4]): > 100 µM
Percent Growth (CCRF-CEM; log10 conc −4.0 Molar): −3%
Percent Growth (CCRF-CEM; log10 conc −5.0 Molar): −11%
Percent Growth (CCRF-CEM; log10 conc −6.0 Molar): 10%
Percent Growth (CCRF-CEM; log10 conc −7.0 Molar): 49%
Percent Growth (CCRF-CEM; log10 conc −8.0 Molar): 66%
GI50 (K-562; Homo sapiens, K562, 48 h): 0.394 µM
CC50 (K-562; Homo sapiens, K562, K-562, 48 h, read-out: LC50 (the source's name)): > 100 µM
TGI (K-562; K-562, 48 h): >1.00E−04 Molar
Percent Growth (K-562; K-562, log10 conc −4.0 Molar, 48 h): 26%
Percent Growth (K-562; K-562, log10 conc −5.0 Molar, 48 h): 25%
Percent Growth (K-562; K-562, log10 conc −6.0 Molar, 48 h): 38%
Percent Growth (K-562; K-562, log10 conc −7.0 Molar, 48 h): 68%
Percent Growth (K-562; K-562, log10 conc −8.0 Molar, 48 h): 82%
TGI (A549/ATCC; A549/ATCC, 48 h): >1.00E−04 Molar
Percent Growth (A549/ATCC; A549/ATCC, log10 conc −4.0 Molar, 48 h): 14%
Percent Growth (A549/ATCC; A549/ATCC, log10 conc −5.0 Molar, 48 h): 20%
Percent Growth (A549/ATCC; A549/ATCC, log10 conc −6.0 Molar, 48 h): 49%
Percent Growth (A549/ATCC; A549/ATCC, log10 conc −7.0 Molar, 48 h): 92%
Percent Growth (A549/ATCC; A549/ATCC, log10 conc −8.0 Molar, 48 h): 97%
GI50 (A549/ATCC; Homo sapiens, A549, 48 h): 0.937 µM
CC50 (A549/ATCC; Homo sapiens, A549/ATCC, 48 h, read-out: LC50 (the source's name)): > 100 µM
GI50 (ROP-92; Homo sapiens): 7.51 µM
CC50 (ROP-92; Homo sapiens, ROP-92, read-out: LC50 (the source's name)): > 100 µM
TGI (ROP-92; ROP-92): >1.00E−04 Molar
Percent Growth (ROP-92; ROP-92, log10 conc −4.0 Molar): 19%
Percent Growth (ROP-92; ROP-92, log10 conc −5.0 Molar): 46%
Percent Growth (ROP-92; ROP-92, log10 conc −6.0 Molar): 79%
Percent Growth (ROP-92; ROP-92, log10 conc −7.0 Molar): 104%
Percent Growth (ROP-92; ROP-92, log10 conc −8.0 Molar): 100%
GI50 (NCI-H460; Homo sapiens): 3.65 µM
CC50 (NCI-H460; [4]): > 100 µM
TGI (NCI-H460): >1.00E−04 Molar
Percent Growth (NCI-H460; log10 conc −4.0 Molar): 15%
Percent Growth (NCI-H460; log10 conc −5.0 Molar): 12%
Percent Growth (NCI-H460; log10 conc −6.0 Molar): 18%
Percent Growth (NCI-H460; log10 conc −7.0 Molar): 92%
Percent Growth (NCI-H460; log10 conc −8.0 Molar): 97%
GI50 (NCI-H522; Homo sapiens): 0.337 µM
CC50 (NCI-H522; [4]): > 100 µM
TGI (NCI-H522): >2.72E−05 Molar
Percent Growth (NCI-H522; log10 conc −4.0 Molar): −16%
Percent Growth (NCI-H522; log10 conc −5.0 Molar): 12%
Percent Growth (NCI-H522; log10 conc −6.0 Molar): 13%
Percent Growth (NCI-H522; log10 conc −7.0 Molar): 91%
Percent Growth (NCI-H522; log10 conc −8.0 Molar): 99%
GI50 (KM12; Homo sapiens): 0.765 µM
CC50 (KM12; [4]): > 100 µM
TGI (KM12): >1.00E−04 Molar
Percent Growth (KM12; log10 conc −4.0 Molar): 15%
Percent Growth (KM12; log10 conc −5.0 Molar): 26%
Percent Growth (KM12; log10 conc −6.0 Molar): 45%
Percent Growth (KM12; log10 conc −7.0 Molar): 84%
Percent Growth (KM12; log10 conc −8.0 Molar): 94%
GI50 (SF-295; Homo sapiens): 0.442 µM
CC50 (SF-295; [4]): > 100 µM
TGI (SF-295): >1.00E−04 Molar
Percent Growth (SF-295; log10 conc −4.0 Molar): 10%
Percent Growth (SF-295; log10 conc −5.0 Molar): 20%
Percent Growth (SF-295; log10 conc −6.0 Molar): 36%
Percent Growth (SF-295; log10 conc −7.0 Molar): 75%
Percent Growth (SF-295; log10 conc −8.0 Molar): 88%
GI50 (SNB-75; Homo sapiens): 5.25 µM
CC50 (SNB-75; [4]): > 100 µM
TGI (SNB-75): >1.00E−04 Molar
Percent Growth (SNB-75; log10 conc −4.0 Molar): 17%
Percent Growth (SNB-75; log10 conc −5.0 Molar): 26%
Percent Growth (SNB-75; log10 conc −6.0 Molar): 75%
Percent Growth (SNB-75; log10 conc −7.0 Molar): 111%
Percent Growth (SNB-75; log10 conc −8.0 Molar): 108%
TGI (CARI-1; CARI-1): >1.00E−04 Molar
Percent Growth (CARI-1; CARI-1, log10 conc −4.0 Molar): 22%
Percent Growth (CARI-1; CARI-1, log10 conc −5.0 Molar): 40%
Percent Growth (CARI-1; CARI-1, log10 conc −6.0 Molar): 61%
Percent Growth (CARI-1; CARI-1, log10 conc −7.0 Molar): 91%
Percent Growth (CARI-1; CARI-1, log10 conc −8.0 Molar): 94%
GI50 (CARI-1; Homo sapiens): 3.26 µM
CC50 (CARI-1; Homo sapiens, CARI-1, read-out: LC50 (the source's name)): > 100 µM
GI50 (TK-10; Homo sapiens): 51.3 µM
CC50 (TK-10; [4]): > 100 µM
TGI (TK-10): >1.00E−04 Molar
Percent Growth (TK-10; log10 conc −4.0 Molar): 48%
Percent Growth (TK-10; log10 conc −5.0 Molar): 54%
Percent Growth (TK-10; log10 conc −6.0 Molar): 76%
Percent Growth (TK-10; log10 conc −7.0 Molar): 93%
Percent Growth (TK-10; log10 conc −8.0 Molar): 102%
TGI (DU-145): >1.00E−04 Molar
Percent Growth (DU-145; log10 conc −4.0 Molar): 27%
Percent Growth (DU-145; log10 conc −5.0 Molar): 30%
Percent Growth (DU-145; log10 conc −6.0 Molar): 54%
Percent Growth (DU-145; log10 conc −7.0 Molar): 98%
Percent Growth (DU-145; log10 conc −8.0 Molar): 100%
GI50 (DU-145; Homo sapiens): 1.52 µM
CC50 (DU-145; [4]): > 100 µM
TGI (BT-549): >1.00E−04 Molar
Percent Growth (BT-549; log10 conc −4.0 Molar): 34%
Percent Growth (BT-549; log10 conc −5.0 Molar): 46%
Percent Growth (BT-549; log10 conc −6.0 Molar): 70%
Percent Growth (BT-549; log10 conc −7.0 Molar): 87%
Percent Growth (BT-549; log10 conc −8.0 Molar): 98%
GI50 (BT-549; Homo sapiens): 6.7 µM
CC50 (BT-549; [4]): > 100 µM
